The text below walks through data of patent US10821115B2, “Compounds that inhibit Mcl-1 protein” (priority 2017, dated 2020).

Experiment [1] concerns the target recombinant human Mcl-1 (residues 171-327) / Bim interaction (Homo sapiens (Human), UniProt Q07820). The experiment is described as follows: biochemical. It is filed as binding. Conditions: read-out: Mcl-1 HTRF IC50. (TR-FRET usually uses a lanthanide donor and a delayed reading to cut background.)
Experiment [2] has as its system human multiple myeloma cell line, OPM-2. Nature of the experiment: Cell viability assay (OPM-2 10 FBS), CellTiter-Glo. The format is cell-based. A digest of the protocol: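 3000 cells/well, RPMI 1640 + 10% FBS; serial compound dilutions, 16 h, 37 °C/5% CO2.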
[3] abbreviates: 0.1 nM Mcl-1(171-327), 0.05 nM biotin-Bim (51-76).
[4] abbreviates: Homo sapiens, OPM-2, 16 h, read-out: OPM-2 10% FBS IC50 IP, OPM-2 cells, 10% FBS, 16 h incubation.
Setting [5] is: TR-FRET, Mcl-1(171-327) / biotin-Bim (51-76).
[6] abbreviates: read-out: OPM-2 10% FBS IC50 IP, OPM-2 cells, 10% FBS, 16 h, CellTiter-Glo.
[7] abbreviates: Homo sapiens, OPM-2, 16 h, read-out: OPM-2 10% FBS IC50 IP, OPM-2 cells, 10% FBS, 16 h, CellTiter-Glo.

Read-outs that look alike come from different tables or passages of the source.

Sequence of recombinant human Mcl-1 (residues 171-327) / Bim interaction (Q07820 171-327): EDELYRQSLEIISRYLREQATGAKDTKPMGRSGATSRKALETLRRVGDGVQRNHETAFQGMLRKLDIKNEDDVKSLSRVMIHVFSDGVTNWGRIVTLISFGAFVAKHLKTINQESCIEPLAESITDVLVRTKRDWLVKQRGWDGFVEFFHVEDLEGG

On to `CCOC1(CN2CCN(C(C)C)CC2)/C=C/C[C@H](C)[C@@H](C)S(=O)(=O)NC(=O)c2ccc3c(c2)N(C[C@@H]2CC[C@H]21)C[C@@]1(CCCc2cc(Cl)ccc21)CO3` (stereo in doubt) [Example 115, (1S,3′R,6′R,7′R,8′E,11′S,12′R)-6-chloro-7′-ethoxy-11′,12′-dimethyl-7′-((4-(1-methylethyl)-1-piperazinyl)methyl)-3,4-dihydro-2H,15′H-spiro[naphthalene-1,22′-[20]oxa[13]thia[1,14]diazatetracyclo [14.7.2.0~3,6~.0~19,24~]pentacosa[8,16,18,24]tetraen]-15′-one 13′,13′-dioxide], for which the values for the IC50 in experiment [1] (setting [3]) and in experiment [2] (setting [4]) were 1.37 nM and 686 nM, respectively.

In the case of `CCO[C@@]1(CN2CCN3CCCC[C@@H]3C2)/C=C/CC[C@@H](CC)S(=O)(=O)NC(=O)c2ccc3c(c2)N(C[C@@H]2CC[C@H]21)C[C@@]1(CCCc2cc(Cl)ccc21)CO3` [Example 43, (1S,3′R,6′R,7′S,8′E,12′R)-6-chloro-7′-ethoxy-12′-ethyl-7′-((9aR)-octahydro-2H-pyrido[1,2-a]pyrazin-2-ylmethyl)-3,4-dihydro-2H,15′H-spiro[naphthalene-1,22′-[20]oxa[13]thia[1,14]diazatetracyclo [14.7.2.0~3,6~.0~19,24~]pentacosa[8,16,18,24]tetraen]-15′-one 13′,13′-dioxide], the IC50 amounted to 1.64 nM in experiment [1] (setting [3]) and 888 nM in experiment [2] (setting [4]).

`C[C@@H]1[C@@H](C)CCC[C@@](O)(CC(=O)N2CCCC2)[C@@H]2CC[C@H]2CN2C[C@@]3(CCCc4cc(Cl)ccc43)COc3ccc(cc32)C(=O)NS1(=O)=O` [Example 100108, (1S,3′R,6′R,7′R,11′S,12′R)-6-chloro-7′-hydroxy-11′,12′-dimethyl-7′-(2-oxo-2-(1-pyrrolidinyl)ethyl)-3,4-dihydro-2H,15′H-spiro[naphthalene-1,22′-[20]oxa[13]thia[1,14]diazatetracyclo [14.7.2.0~3,6~.0~19,24~]pentacosa[16,18,24]trien]-15′-one 13′,13′-dioxide]: the results for the IC50 in experiment [1] (setting [5]) and in experiment [2] (setting [6]) were 0.436 nM and 358 nM, respectively.

On to `C[C@@H]1[C@@H](C)C/C=C/[C@@](O)(c2ccc(F)cn2)[C@@H]2CC[C@H]2CN2C[C@@]3(CCCc4cc(Cl)ccc43)COc3ccc(cc32)C(=O)NS1(=O)=O` (single isomer, unassigned) [Example 100402], for which the IC50 is 0.098 nM in experiment [1] (setting [5]) and 133 nM in experiment [2] (setting [7]).

In the case of `CO[C@@]1(CN2CCN(C3CCC3)CC2)/C=C/C[C@H](C)[C@@H](C)S(=O)(=O)NC(=O)c2ccc3c(c2)N(C[C@@H]2CC[C@H]21)C[C@@]1(CCCc2cc(Cl)ccc21)CO3` [Example 281, (1S,3′R,6′R,7′S,8′E,11′S,12′R)-6-chloro-7′-((4-cyclobutyl-1-piperazinyl)methyl)-7′-methoxy-11′,12′-dimethyl-3,4-dihydro-2H,15′H-spiro[naphthalene-1,22′-[20]oxa[13]thia[1,14]diazatetracyclo [14.7.2.0~3,6~.0~19,24~]pentacosa[8,16,18,24]tetraen]-15′-one 13′,13′-dioxide], the IC50 in experiment [1] (setting [3]) came to 0.181 nM; in experiment [2] (setting [4]), 152 nM.

For the compound `CC(C)CO[C@]1(CN2CCN(C3COC3)CC2)/C=C/C[C@H](C)[C@@H](C)S(=O)(=O)NC(=O)c2ccc3c(c2)N(C[C@@H]2CC[C@H]21)C[C@@]1(CCCc2cc(Cl)ccc21)CO3` [Example 355], the results for the IC50 in experiment [1] (setting [3]) and in experiment [2] (setting [4]) were 0.172 nM and 272 nM, respectively.

For the compound `CCO[C@]1(CN2CCN(CCOC)CC2)/C=C/C[C@H](C)[C@@H](C)S(=O)(=O)NC(=O)c2ccc3c(c2)N(C[C@@H]2CC[C@H]21)C[C@@]1(CCCc2cc(Cl)ccc21)CO3` [Example 123, (1S,3′R,6′R,7′R,8′E,11′S,12′R)-6-chloro-7′-ethoxy-7′-((4-(2-methoxyethyl)-1-piperazinyl)methyl)-11′,12′-dimethyl-3,4-dihydro-2H,15′H-spiro[naphthalene-1,22′-[20]oxa[13]thia[1,14]diazatetracyclo [14.7.2.0~3,6~.0~19,24~]pentacosa[8,16,18,24]tetraen]-15′-one 13′,13′-dioxide], the results for the 50% inhibitory concentration (IC50) in experiment [1] (setting [3]) and in experiment [2] (setting [4]) were 0.205 nM and 228 nM, respectively.

On to `C=CC[C@@]1(O)/C=C/C[C@H](C)[C@@H](C)S(=O)(=O)NC(=O)c2ccc3c(c2)N(C[C@@H]2CC[C@H]21)C[C@@]1(CCCc2cc(Cl)ccc21)CO3` (stereo in doubt) [Example 100127], for which the IC50 in experiment [1] (setting [5]) came out at 0.175 nM; in experiment [2] (setting [6]) it was 108 nM.

Regarding `C[C@@H]1[C@@H](C)CCC[C@@](O)(Cc2nccs2)[C@@H]2CC[C@H]2CN2C[C@@]3(CCCc4cc(Cl)ccc43)COc3ccc(cc32)C(=O)NS1(=O)=O` (single isomer, unassigned) [Example 100250], the IC50 was determined as 0.136 nM in experiment [1] (setting [5]) and 82 nM in experiment [2] (setting [6]).

Take `C[C@@H]1[C@@H](C)C/C=C/[C@@](O)(CC(=O)N(C)c2ccccc2)[C@@H]2CC[C@H]2CN2C[C@@]3(CCCc4cc(Cl)ccc43)COc3ccc(cc32)C(=O)NS1(=O)=O` [Example 100247, 2-((1S,3′R,6′R,7′S,8′E,11′S,12′R)-6-chloro-7′-hydroxy-11′,12′-dimethyl-13′,13′-dioxido-15′-oxo-3,4-dihydro-2H-spiro[naphthalene-1,22′-[20]oxa[13]thia[1,14]diazatetracyclo [14.7.2.0~3,6~.0~19,24~]pentacosa[8,16,18,24]tetraen]-7′-yl)-N-methyl-N-phenylacetamide]: the half-maximal inhibitory concentration (IC50) is 0.542 nM in experiment [1] (setting [5]) and 624 nM in experiment [2] (setting [7]).

For the compound `CC[C@@H]1CC/C=C/[C@@](CN2CCN3CCOC[C@@H]3C2)(OC)[C@@H]2CC[C@H]2CN2C[C@@]3(CCCc4cc(Cl)ccc43)COc3ccc(cc32)C(=O)NS1(=O)=O` [Example 30, (1S,3′R,6′R,7′R,8′E,12′R)-6-chloro-12′-ethyl-7′-((9aS)-hexahydropyrazino[2,1-c][1,4]oxazin-8(1H)-ylmethyl)-7′-methoxy-3,4-dihydro-2H,15′H-spiro[naphthalene-1,22′-[20]oxa[13]thia[1,14]diazatetracyclo [14.7.2.0~3,6~.0~19,24~]pentacosa[8,16,18,24]tetraen]-15′-one 13′,13′-dioxide], the IC50 in experiment [1] (setting [3]) came to 0.11 nM; in experiment [2] (setting [4]) it was 166 nM.

As for `CCCO[C@]1(CN2CCN(C3COC3)CC2)/C=C/C[C@H](C)[C@@H](C)S(=O)(=O)NC(=O)c2ccc3c(c2)N(C[C@@H]2CC[C@H]21)C[C@@]1(CCCc2cc(Cl)ccc21)CO3` [Example 352, (1S,3′R,6′R,7′R,8′E,11′S,12′R)-6-chloro-11′,12′-dimethyl-7′-((4-(3-oxetanyl)-1-piperazinyl)methyl)-7′-propoxy-3,4-dihydro-2H,15′H-spiro[naphthalene-1,22-[20]oxa[13]thia[1,14]diazatetracyclo [14.7.2.0~3,6~.0~19,24~]pentacosa[8,16,18,24]tetraen]-15′-one 13′,13′-dioxide], the IC50 is 0.111 nM in experiment [1] (setting [3]) and 162 nM in experiment [2] (setting [4]).

As for `CO[C@@]1(CN2CCN(c3ccc(B(O)O)c(C(C)=O)c3)CC2)/C=C/C[C@H](C)[C@@H](C)S(=O)(=O)NC(=O)c2ccc3c(c2)N(C[C@@H]2CC[C@H]21)C[C@@]1(CCCc2cc(Cl)ccc21)CO3` [Example 296, (2-acetyl-4-(4-(((1S,3′R,6′R,7′S,8′E,11′S, 12′R)-6-chloro-7′-methoxy-11′,12′-dimethyl-13′,13′-dioxido-15′-oxo-3,4-dihydro-2H-spiro[naphthalene-1,22′-[20]oxa[13]thia[1,14]diazatetracyclo [14.7.2.0~3,6~.0~19,24~]pentacosa[8,16,18,24]tetraen]-7′-yl)methyl)-1-piperazinyl)phenyl)boronic acid], the IC50 was found to be 0.211 nM in experiment [1] (setting [3]) and 1310 nM in experiment [2] (setting [4]).

Consider `C[C@@H]1[C@@H](C)C/C=C/[C@@](O)(CC(=O)O)[C@@H]2CC[C@H]2CN2C[C@@]3(CCCc4cc(Cl)ccc43)COc3ccc(cc32)C(=O)NS1(=O)=O` [Example 100101, ((1S,3′R,6′R,7′S,8′E,11′S,12′R)-6-chloro-7′-hydroxy-11′,12′-dimethyl-13′,13′-dioxido-15′-oxo-3,4-dihydro-2H-spiro[naphthalene-1,22′-[20]oxa[13]thia[1,14]diazatetracyclo [14.7.2.0~3,6~.0~19,24~]pentacosa[8,16,18,24]tetraen]-7′-yl)acetic acid], for which the figures for the IC50 in experiment [1] (setting [5]) and in experiment [2] (setting [7]) were 0.062 nM and 2600 nM, respectively.

Turning to `CC(C)CO[C@]1(C=O)/C=C/C[C@H](C)[C@@H](C)S(=O)(=O)NC(=O)c2ccc3c(c2)N(C[C@@H]2CC[C@H]21)C[C@@]1(CCCc2cc(Cl)ccc21)CO3` [Example 100603, (1S,3′R,6′R,7′R,8′E,11′S,12′R)-6-chloro-11′,12′-dimethyl-7′-(2-methylpropoxy)-15′-oxo-3,4-dihydro-2H-spiro[naphthalene-1,22′-[20]oxa[13]thia[1,14]diazatetracyclo [14.7.2.0~3,6~.0~19,24~]pentacosa[8,16,18,24]tetraene]-7′-carbaldehyde 13′,13′-dioxide], the IC50 in experiment [1] (setting [5]) is 0.651 nM; in experiment [2] (setting [7]), 1570 nM.

Consider `COC(OC)c1cncc([C@@]2(OC)/C=C/C[C@H](C)[C@@H](C)S(=O)(=O)NC(=O)c3ccc4c(c3)N(C[C@@H]3CC[C@H]32)C[C@@]2(CCCc3cc(Cl)ccc32)CO4)c1` (single isomer, unassigned) [Example 100511], for which the IC50 in experiment [1] (setting [5]) was found to be 0.07 nM; in experiment [2] (setting [7]), 430 nM.

For the compound `C[C@@H]1[C@@H](C)C/C=C/[C@@](O)(C#CCN2CCOCC2)[C@@H]2CC[C@H]2CN2C[C@@]3(CCCc4cc(Cl)ccc43)COc3ccc(cc32)C(=O)NS1(=O)=O` (single isomer, unassigned) [Example 100018], the IC50 in experiment [1] (setting [5]) came out at 0.061 nM; in experiment [2] (setting [6]), 49 nM.

By IC50 is commonly meant the concentration needed to halve the response being measured.
